Biological target: T1, TLR⅞ (Mus musculus, UniProt P58681)
T1 sequence (P58681 27-1050): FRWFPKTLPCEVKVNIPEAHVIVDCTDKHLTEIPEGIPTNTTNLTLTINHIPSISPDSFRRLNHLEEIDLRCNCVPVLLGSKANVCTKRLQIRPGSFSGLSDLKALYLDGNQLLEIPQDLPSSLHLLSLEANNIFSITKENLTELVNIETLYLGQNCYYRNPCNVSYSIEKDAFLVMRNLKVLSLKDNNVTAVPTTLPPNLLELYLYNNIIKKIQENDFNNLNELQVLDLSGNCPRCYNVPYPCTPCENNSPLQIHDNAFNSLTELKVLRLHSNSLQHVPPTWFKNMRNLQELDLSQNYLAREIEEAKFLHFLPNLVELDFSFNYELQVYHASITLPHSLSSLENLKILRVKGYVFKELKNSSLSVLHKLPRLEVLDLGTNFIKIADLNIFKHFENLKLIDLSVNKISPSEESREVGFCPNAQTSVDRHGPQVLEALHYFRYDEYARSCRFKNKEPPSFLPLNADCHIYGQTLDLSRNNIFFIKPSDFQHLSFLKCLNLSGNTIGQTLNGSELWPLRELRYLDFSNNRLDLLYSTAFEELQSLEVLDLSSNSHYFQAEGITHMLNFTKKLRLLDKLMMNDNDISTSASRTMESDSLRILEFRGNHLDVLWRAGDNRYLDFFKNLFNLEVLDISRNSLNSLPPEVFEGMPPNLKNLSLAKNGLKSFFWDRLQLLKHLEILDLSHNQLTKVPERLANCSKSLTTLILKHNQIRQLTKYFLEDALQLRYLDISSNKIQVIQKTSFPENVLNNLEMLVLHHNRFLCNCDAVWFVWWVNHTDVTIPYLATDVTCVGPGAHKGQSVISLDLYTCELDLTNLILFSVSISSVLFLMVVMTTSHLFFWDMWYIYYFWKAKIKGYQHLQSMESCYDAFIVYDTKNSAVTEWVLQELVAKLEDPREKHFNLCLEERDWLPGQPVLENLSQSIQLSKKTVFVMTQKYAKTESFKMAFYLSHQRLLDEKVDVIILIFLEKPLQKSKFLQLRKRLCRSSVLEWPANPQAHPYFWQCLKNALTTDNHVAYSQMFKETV
Assay: Mouse spleenocytes cell assay with R848 stimulation (IL6/TNFa ELISA)
Assay type: cell-based
Settings: R848 1 µM
Protocol: Mouse spleen from healthy, female C57BL-6/N mice (n=2) were taken out in 50 mL tubes with B-Cell medium and the experiment started directly. The spleen was grinded through a cell strainer by using the punch of a syringe into a 50 mL Falcon tube. Cell strainer and punch were flushed with appropriate amount of washing buffer to avoid cellloss. Then the spleenocytes were centrifuged for 10 min at 552 xg (1600 rpm), 4° C. The erythrocytes within the cell pellet were lysed by resuspending pellet in 1 ml ACK-lysing buffer (4° C.) and incubate for 1 minute at RT. Lysis was stopped by filling up to 50 ml with washing buffer and centrifuged for 10 min at 552 xg (1600 rpm), 4° C. Cells were washed in B-cell Media (IMDM + 25 mM HEPES + 10%FCS + pen/strep + NEAA 10 nM + Sodium Pyrovat 100 nM, β-Mercaptoethanol 50 nM), counted and seeded in a density of 148500 cells per well in a 96 well MTP (135µl of 1,1×106c/ml). The cells were pre-treated with antimalarials (15 µL, in different concentrations according to dose-response curve ranging from 100 pM-50 µM)) for 30 min, at 37° C., 5% CO2, followed by TLR⅞ stimulation with R848 (15 µl, final concentration of 1 µM) or a TLR9 stimulation with CpG (15 µl, final concentration of 5 µM) and incubated at 37° C., 5% CO2 for 18 - 24 hours.
Supernatants were collected and transferred into a 96 well round bottom MTP and stored at -20° C. until ELISA formouse IL6 and mouse TNFa were performed. Plates were read directly after assay on an Envision Multiplate reader. Results were analyzed with GraphPadPrism V8.0. Plot the calculated amount of produced IL6 or TNFa in pg/ml on y-axis and the concentration of each MSC concentration at half logarhythmic scaling on the x-axis to achieve a dose-response curve. Determine IC50 values using Graph Pad Prism analysis software (Transform Y values using “X=Log(X) and log inhibitor vs. response; Variable slope (four parameters).

CCN(CCO)CCCC(C)Nc1ccnc2cc(Cl)ccc12 (stereo not drawn) [HYDROXY-CHLOROQUINE HCQ, hydroxychloroquine]
IC50 TLR⅞ (IL6 readout) mouse spleenocytes (n=2) (IL6 readout): no suppr
IC50 (IL6 readout, read-out: IC50 TLR⅞ (IL6 readout) mouse spleenocytes (n=2)): 27.1 µM
IC50 TLR⅞ (TNF readout) mouse spleenocytes (n=2) (TNF readout): no suppr
